According to paper PMC3190057 (Food and chemical toxicology : an international journal …, 2011):
“And” between values parts separate entries of the source, which are not always exact repeats. Equal values may be shown once.

Tests used:
[1] = test system: P-gp; experiment: in vitro; settings: human
[2] = test system: P-gp; experiment: Immunofluorescence staining and imaging of membrane P-gp; type: cell-based, human; settings: LS-180 cells, 25 μM, 48 h, mean ± SD (n=4)
[3] = test system: P-gp; experiment: P-gp functional activity, rhodamine 123 uptake with or without 100 μM verapamil; settings: LS-180 cells; for increase in P-gp activity: 48 h; for Emax (fold ↑ in P-gp activity): Hill equation fit
[4] = test system: P-gp; experiment: In vitro induction of P-gp expression, Western blotting; type: cell-based, human; settings: LS-180 cells, 25 μM, 48 h, Western blot densitometry, P-gp/β-actin
[5] = human subjects, oral administration, cited from earlier work
[6] = test system: LS-180 cells; experiment: Toxicity to LS-180 cells during the induction treatment; type: cell-based, human

Row | EC50 at 48 h [1] [µM] | SMILES | fold-increase in membrane P-gp expression compared to the control [2] [fold] | increase in P-gp activity ([3]; 25 μM) [%] | Emax (fold ↑ in P-gp activity) [3] [fold] | fold increase in the expression of P-gp protein compared to control [4] | decrease in digoxin area under the plasma curve (AUC) ([5]; ref Greiner et al., 1999) [%] | decrease in risperidone area under the plasma curve (AUC) ([5]; ref Kim et al., 2008) [%] | increase in P-gp activity ([3]; 5 μM) [%] | EC50 at 48 h ([1]; LS-180 cells, probe rhodamine 123 (1 μg/mL), with verapamil 100 μM) [µM] | increase in P-gp activity ([3]; 10 μM) [%] | concentration toxic to the cells [6] [µM]
1 | 11.3 | C[C@H]1[C@H](C)CC[C@]2(C(=O)O)CC[C@]3(C)C(=CC[C@@H]4[C@@]5(C)C[C@@H](O)[C@H](O)[C@@](C)(CO)[C@@H]5CC[C@]43C)[C@H]12 [asiatic acid, Asiatic acid] | 2.5 ± 0.95 | > 45 | 1.5 | 2.3-3.0 fold and 2.6 fold | – | – | – | – | – | –
2 | 14 | C/C=C(/C=O)[C@@H](CC=O)CC(=O)OCCc1ccc(O)cc1 [oleocanthal, (-)-Oleocanthal] | 9.3 ± 0.37 | – | 4.5 | 2.3-3.0 fold and 2.3 fold | – | – | – | – | – | –
3 | – | CC(C)=CCC/C(C)=C/CC/C(C)=C/CC[C@]1(C)CCc2cc(O)c(C)c(C)c2O1 [γ-tocotrienol, γ-Tocotrienol] | 4.6 ± 0.39 | – | 1.7 | 2.3-3.0 fold and 2.5 fold | – | – | – | 5.9 | > 45 | > 25

Row | SMILES | EC50 at 48 h [1] [µM] | fold-increase in membrane P-gp expression compared to the control [2] [fold] | increase in P-gp activity ([3]; 25 μM) [%] | Emax (fold ↑ in P-gp activity) [3] [fold] | fold increase in the expression of P-gp protein compared to control [4] | decrease in digoxin area under the plasma curve (AUC) ([5]; ref Greiner et al., 1999) [%] | decrease in risperidone area under the plasma curve (AUC) ([5]; ref Kim et al., 2008) [%] | increase in P-gp activity ([3]; 5 μM) [%] | EC50 at 48 h ([1]; LS-180 cells, probe rhodamine 123 (1 μg/mL), with verapamil 100 μM) [µM] | increase in P-gp activity ([3]; 10 μM) [%] | concentration toxic to the cells [6] [µM]
4 | CO[C@H]1/C=C/O[C@@]2(C)Oc3c(C)c(O)c4c(O)c(c(/C=N/N5CCN(C)CC5)c(O)c4c3C2=O)NC(=O)/C(C)=C\C=C\[C@H](C)[C@H](O)[C@@H](C)[C@@H](O)[C@@H](C)[C@H](OC(C)=O)[C@@H]1C [rifampicin, Rifampicin, reference compound] | 26.8 | – | 230 | 4.4 | 5 fold | 30 | 51 | 180 | – | – | –
